Reference: patent US11827866B2 (priority 2007, dated 2023)

Experiments:
subtilisin = subtilisin (Bacillus licheniformis, UniProt P00780); details: literature statement, Biochem. Biophys. Res. Com. 176, 1991; cited from earlier work
protease = format: biochemical; details: pH 9

subtilisin, sequence (P00780 106-379): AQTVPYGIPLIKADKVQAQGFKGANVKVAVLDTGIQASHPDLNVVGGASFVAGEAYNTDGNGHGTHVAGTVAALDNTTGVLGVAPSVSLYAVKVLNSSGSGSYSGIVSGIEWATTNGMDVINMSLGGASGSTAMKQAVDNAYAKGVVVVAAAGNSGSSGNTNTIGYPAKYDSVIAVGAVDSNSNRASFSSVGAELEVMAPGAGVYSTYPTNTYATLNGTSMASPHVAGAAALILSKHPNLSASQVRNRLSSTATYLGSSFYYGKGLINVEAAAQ

SMILES | Residual activity (4 weeks at 40° C.) (protease) [%] | also measured
OB(O)c1cc(Cl)cc(Cl)c1 [3,5-dichlorophenylboronic acid] | – | capacity as subtilisin inhibitor (subtilisin): particularly effective
[Cl][Al]([Cl])[Cl] [Aluminium Chloride] | 16 | –
Cl.N [Armonium Chloride] | 49 | –
N.O=[N+]([O-])O [Armonium Nitrate] | 41 | –
N.N.O=S(=O)(O)O [Armonium Sulfate] | 43 | –
[Ca+2].[Cl-].[Cl-] [Calcium Chloride] | 22 | –
[Cl-].[Cl-].[Mg+2] [Magnesium Chloride] | 79 | –
O=[N+]([O-])[O-].O=[N+]([O-])[O-].[Mg+2] [Magnesium Nitrate] | 55 | –
O=S(=O)([O-])[O-].[Mg+2] [Magnesium Sulfate] | 37 | –
[Cl-].[K+] [Potassium Chloride] | 34 | –
CC(=O)[O-].[Na+] [Sodium Acetate] | 20 | –
O=C([O-])[O-].[Na+].[Na+] [Sodium Carbonate] | 15 | –
[Cl-].[Na+] [Sodium Chloride] | 32 | –
O=C([O-])CC(O)(CC(=O)[O-])C(=O)[O-].[Na+].[Na+].[Na+] [Sodium Citrate] | 1 | –
O=C[O-].[Na+] [Sodium Formiate] | 29 | –
O=[N+]([O-])[O-].[Na+] [Sodium Nitrate] | 20 | –
O=P(O)(O)O [Sodium Phosphate] | 13 | –
O=S(=O)([O-])[O-].[Na+].[Na+] [Sodium Sulfate] | 22 | –
[Cl-].[Cl-].[Zn+2] [Zink Chloride] | – | Residual activity (2 weeks at 40° C.) (protease): 102%
O=S(=O)([O-])[O-].[Zn+2] [Zink Sulfate] | – | Residual activity (2 weeks at 40° C.) (protease): 88%
CB(O)O [methylboronic acid] | – | capacity as subtilisin inhibitor (subtilisin): poorest inhibitor
